Values joined by “and” are separate entries in the source; they are usually repeats but may differ in a detail not shown here. Equal values may be shown once.
Tests used:
BCL-2 = molecular target: T1, BCL-2 (Homo sapiens, UniProt P10415); test: BCL-2 degradation by immunoblot in 293T cells; type: cell-based; settings: 293T, 16 h, Supplementary Fig. 1b
T1 construct: endogenous in cells
Protocol: (§1) The DC50 and Dmax were calculated using Prism based on the ImageJ-quantified western blots in Supplementary Fig. 4. c, d AlphaLISA assay to determine the formation of BCL-xL/PROTAC/VHL-ELOC-ELOB (VCB) (c) or BCL-2/PROTAC/VCB (d) ternary complex in a cell-free condition. Data represent the mean of a single experiment with 2 technical replicates. Similar results were obtained in one more independent experiment. e, f NanoBRET assays evaluating intracellular BCL-xL/PROTAC/VCB (e) or BCL-2/PROTAC/VCB (f) ternary complex formation. […] Data are expressed as mean ± s.e.m. of three biological replicates. Source data are provided as a Source data file.
(§2) Representative immunoblots are shown in (a–d) and β-actin was used as a loading control in all immunoblot analyses. The normalized protein content in the immunoblots is presented as mean values ± s.e.m. (n = 3 biologically independent experiments) in the bar graph (bottom panel). e, f The formation of BCL-xL/PROTAC/VCB (e) and BCL-2/PROTAC/VCB (f) ternary complexes in a cell-free condition was determined by AlphaLISA assay. Data represent the mean of a single experiment with 2 technical replicates. […] Source data are provided as a Source data file.
(§3) Cells were collected, washed once with ice-cold phosphate-buffered saline, pH 7.2 (PBS, cat. no. 20012027; Thermo Fisher Scientific) and lysed in RIPA lysis buffer (Cat. No. BP-115DG, Boston Bio Products, Ashland, MA, USA) supplemented with protease and phosphatase inhibitor cocktails (Cat. No. PPC1010, Sigma-Aldrich, St. Louis, MO, USA) through sonication. The samples were centrifuged at 14,000 r.p.m. for 5 min and the supernatants were transferred into a new tube. The protein concentration in the supernatants was determined using the Pierce BCA protein Assay kit (cat. no. 23225, Thermo Fisher Scientific). The protein concentration was normalized, and the samples were reduced in 4× Laemmli’s SDS-sample buffer (cat. no. BP-110R, Boston Bio Products) and denatured at 95 °C for 5 min. An equal amount of protein samples (20–40 μg per lane) were resolved using precast 4–20% Tris-glycine gels (Mini-PROTEAN TGX, cat. no. 456–1094, Bio-Rad), and resolved proteins were transferred onto 0.2-µm pore size polyvinylidene difluoride (PVDF) blotting membranes (cat. no. LC2002, Thermo Fisher Scientific) using mini trans-blot electrophoretic transfer cell (Bio-Rad). The membranes were blocked with non-fat dry milk (5% wt/vol) in 1× Tris-buffered saline-Tween-20 (TBST, cat. no. J77500, Affymetrix) for 1 h at room temperature, and were subsequently probed with primary antibodies at a predetermined optimal concentration in non-fat dry milk (5% wt/vol in TBST) overnight at 4 °C. The membranes were washed three times (5 min each) in TBST and then incubated with horse radish peroxidase (HRP)-conjugated secondary antibodies for 1 h at room temperature. Following sufficient washing with TBST, the membranes were exposed with chemiluminescent HRP substrate (cat. no. WBKLS0500, MilliporeSigma), and the signal was detected using the ChemiDoc MP Imaging System (Bio-Rad) and quantified using the ImageJ (v1.53a) software from NIH.

[1] = test system: BCL-xL/PROTAC/VCB ternary complex (HiBit-BCL-xL, HaloTag-VHL); test: NanoBRET intracellular ternary complex formation in 293T cells, BCL-xL; type: cell-based, human; settings: NanoBRET, 293T cells, 6 h
Source text: (§4) Plasmids HaloTag-VHL (Cat. No. CS1679C155) and CMV HiBit (Cat. No. CS1956B03) were purchased from Promega. HiBit-BCL-xL and HiBit-BCL-2 were constructed previously. The two mutants (HiBit-BCL-xL-K157-only and HiBit-BCL-xL-K-ko) were constructed through Gibson assembly method. The primer pair (5′-[…]-3′ and 5′-[…]c[…]-3′) and the template Flag-BCL-xL-K157-only or Flag-BCL-xL-K-ko (pDL2129)[2] were used to clone the BCL-xL-K157-only-containing and BCL-xL-K-ko-containing fragments, respectively. The primer pair (5′-[…]g[…]-3′ and 5′-[…]-3′) and pBit3.1-N (Cat. No. N2361, Promega) were used to clone the vector-containing fragment. The PCR fragments were assembled using NEBuilder® HiFi DNA Assembly Master Mix (Cat. No. E2621, NEB, Ipswich, MA, USA). DNA sequences in all these plasmids were authenticated by automatic sequencing. […] After 24 h, 2 × 10^4 transfected cells were seeded into white 96-well tissue culture plates in Gibco™ Opti-MEM™ I Reduced Serum Medium, No Phenol Red (Cat. No. 11-058-021, Fisher) containing 4% FBS with or without HaloTag NanoBRET 618 Ligand (Cat. No. PRN1662, Promega) and incubated overnight at 37 °C, 5% CO2. The following day, serial diluted compounds were added into the medium and plates were incubated at 37 °C, 5% CO2, for 6 h. After treatment, NanoBRET Nano-Glo Substrate (cat. no. N1662, Promega) was added into the medium, and the contents were mixed by shaking the plate for 30 s before measuring donor and acceptor signals on Biotek plate reader. Dual-filtered luminescence was collected with a 450/50 nm bandpass filter (donor, NanoBiT-BCL-XL protein or NanoBiT-BCL-2 protein) and a 610-nm longpass filter (acceptor, HaloTag NanoBRET ligand) using an integration time of 0.5 s. mBRET ratios were calculated following the NanoBRET™ Nano-Glo® Detection System (Cat. No. N1662, Promega).

BCL-xL = molecular target: T2, BCL-xL (Homo sapiens, UniProt Q07817); test: BCL-xL degradation by immunoblot in 293T cells; type: cell-based; settings: 16 h; for normalized BCL-xL protein content: 293T, Supplementary Fig. 1b
T2 construct: endogenous in cells
T2 sequence (Q07817 whole entry): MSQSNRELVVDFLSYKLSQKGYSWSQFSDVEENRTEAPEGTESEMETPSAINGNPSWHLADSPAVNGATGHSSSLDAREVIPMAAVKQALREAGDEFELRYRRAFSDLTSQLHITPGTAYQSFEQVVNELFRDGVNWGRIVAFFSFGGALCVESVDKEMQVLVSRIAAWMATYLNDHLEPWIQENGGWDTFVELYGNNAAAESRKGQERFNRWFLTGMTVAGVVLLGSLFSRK
Protocol: as §1, §2, §3

[2] = test system: BCL-2/PROTAC/VCB ternary complex (HiBit-BCL-2, HaloTag-VHL); test: NanoBRET intracellular ternary complex formation in 293T cells, BCL-2; type: cell-based, human; settings: NanoBRET, 293T cells, 6 h
Source text: as §4

[3] = XZ739 concentration 0.003 (unit not given), untreated = 100, 2 replicates

T1 sequence (P10415 whole entry): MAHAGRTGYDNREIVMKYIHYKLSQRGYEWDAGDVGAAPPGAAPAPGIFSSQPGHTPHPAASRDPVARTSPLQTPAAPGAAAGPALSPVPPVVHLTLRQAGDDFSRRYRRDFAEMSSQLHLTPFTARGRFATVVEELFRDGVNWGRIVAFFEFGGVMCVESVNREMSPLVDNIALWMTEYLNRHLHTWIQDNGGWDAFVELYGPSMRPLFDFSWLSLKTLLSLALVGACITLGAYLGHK

- normalized BCL-2 protein content (BCL-2; [3]): 116 and 103
- normalized BCL-2 protein content (BCL-2; concentration 0.01): 119 and 99
- normalized BCL-2 protein content (BCL-2; concentration 0.03): 113 and 104
- normalized BCL-2 protein content (BCL-2; concentration 0.1): 114 and 109
- normalized BCL-2 protein content (BCL-2; concentration 0.3): 119 and 101
- normalized BCL-2 protein content (BCL-2; concentration 1): 102 and 95
- normalized BCL-2 protein content (BCL-2; concentration 3): 97 and 102
- BCL-xL degradation (in words) (BCL-xL; 293T cells): could degrade BCL-xL
- normalized BCL-xL protein content (BCL-xL; [3]): 88 and 95
- normalized BCL-xL protein content (BCL-xL; concentration 0.01): 85 and 86
- normalized BCL-xL protein content (BCL-xL; concentration 0.03): 76 and 80
- normalized BCL-xL protein content (BCL-xL; concentration 0.1): 67 and 65
- normalized BCL-xL protein content (BCL-xL; concentration 0.3): 32 and 40
- normalized BCL-xL protein content (BCL-xL; concentration 1): 32 and 31
- normalized BCL-xL protein content (BCL-xL; concentration 3): 22 and 19
SMILES: CN(CCOCCOCCOCCNc1cccc2c1C(=O)N(C1CCC(=O)NC1=O)C2=O)CC[C@H](CSc1ccccc1)Nc1ccc(S(=O)(=O)NC(=O)c2ccc(N3CCN(CC4=C(c5ccc(Cl)cc5)CCC(C)(C)C4)CC3)cc2)cc1S(=O)(=O)C(F)(F)F (some centres unmarked) [XZ739, reference compound]
- intracellular ternary complex formation with BCL-xL (in words) [1]: formed cellular ternary complexes with both BCL-xL and BCL-2
- intracellular ternary complex formation with BCL-2 (in words) [2]: formed cellular ternary complexes with both BCL-xL and BCL-2

Reference: paper PMC8617031, “Development of a BCL-xL and BCL-2 dual degrader with improved anti-leukemic activity,” (Nature Communications, 2021)
